{
  "source": "PubChem BioAssay (NCI)",
  "experiment_in_all_cases": "NCI tumour cell line growth inhibition, 48 h",
  "key": {"A549 NSCLC": {"test_system": "A549 NSCLC"}, "DLD-1 colon": {"test_system": "DLD-1 colon"}, "DMS 114 small cell lung": {"test_system": "DMS 114 small cell lung"}, "DMS 273 small cell lung": {"test_system": "DMS 273 small cell lung"}, "EKVX NSCLC": {"test_system": "EKVX NSCLC"}, "HCT-116 colon": {"test_system": "HCT-116 colon"}, "HOP-18 NSCLC": {"test_system": "HOP-18 NSCLC"}, "KM20L2 colon": {"test_system": "KM20L2 colon"}, "LXFL 529 NSCLC": {"test_system": "LXFL 529 NSCLC"}, "M14 melanoma": {"test_system": "M14 melanoma"}, "M19-MEL melanoma": {"test_system": "M19-MEL melanoma"}, "SF-539 CNS": {"test_system": "SF-539 CNS"}, "SN12C renal": {"test_system": "SN12C renal"}, "SNB-78 CNS": {"test_system": "SNB-78 CNS"}, "SR leukemia": {"test_system": "SR leukemia"}, "SNB-19 CNS": {"test_system": "SNB-19 CNS"}, "A498 renal": {"test_system": "A498 renal"}, "MCF7 breast": {"test_system": "MCF7 breast"}, "PC-3 prostate": {"test_system": "PC-3 prostate"}, "NCI-H226 lung": {"test_system": "NCI-H226 lung"}},
  "note": "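Five concentrations, 48 hours, 96-well plates. TGI: concentration producing complete growth inhibition.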",
  "data": [
    {"smiles": "CC(=O)OC1(C#N)CC2OC1C1C2N=NN1C(=O)OC(C)(C)C", "note": "(centres undefined)", "values": [
      {"measurement": "TGI", "setting": "A549 NSCLC", "result": "> 100", "unit": "µM"},
      {"measurement": "TGI", "setting": "DLD-1 colon", "result": "> 100", "unit": "µM"},
      {"measurement": "TGI", "setting": "DMS 114 small cell lung", "result": 65.6, "unit": "µM"},
      {"measurement": "TGI", "setting": "DMS 273 small cell lung", "result": 73.8, "unit": "µM"},
      {"measurement": "TGI", "setting": "EKVX NSCLC", "result": "> 100", "unit": "µM"},
      {"measurement": "TGI", "setting": "HCT-116 colon", "result": 28.6, "unit": "µM"},
      {"measurement": "TGI", "setting": "HOP-18 NSCLC", "result": "> 100", "unit": "µM"},
      {"measurement": "TGI", "setting": "KM20L2 colon", "result": "> 100", "unit": "µM"},
      {"measurement": "TGI", "setting": "LXFL 529 NSCLC", "result": "> 100", "unit": "µM"},
      {"measurement": "TGI", "setting": "M14 melanoma", "result": 46.6, "unit": "µM"},
      {"measurement": "TGI", "setting": "M19-MEL melanoma", "result": "> 100", "unit": "µM"},
      {"measurement": "TGI", "setting": "SF-539 CNS", "result": 52.7, "unit": "µM"},
      {"measurement": "TGI", "setting": "SN12C renal", "result": "> 100", "unit": "µM"},
      {"measurement": "TGI", "setting": "SNB-78 CNS", "result": 73.2, "unit": "µM"},
      {"measurement": "TGI", "setting": "SR leukemia", "result": "> 100", "unit": "µM"}
    ]},
    {"smiles": "COC(=O)CN(C)P(=O)(N1CC1)N1CC1", "values": [
      {"measurement": "TGI", "setting": "A549 NSCLC", "result": "> 100", "unit": "µM"},
      {"measurement": "TGI", "setting": "DLD-1 colon", "result": "> 100", "unit": "µM"},
      {"measurement": "TGI", "setting": "DMS 114 small cell lung", "result": "> 100", "unit": "µM"},
      {"measurement": "TGI", "setting": "DMS 273 small cell lung", "result": "> 100", "unit": "µM"},
      {"measurement": "TGI", "setting": "EKVX NSCLC", "result": "> 100", "unit": "µM"},
      {"measurement": "TGI", "setting": "KM20L2 colon", "result": "> 100", "unit": "µM"},
      {"measurement": "TGI", "setting": "LXFL 529 NSCLC", "result": "> 100", "unit": "µM"},
      {"measurement": "TGI", "setting": "M14 melanoma", "result": "> 100", "unit": "µM"},
      {"measurement": "TGI", "setting": "SF-539 CNS", "result": "> 100", "unit": "µM"},
      {"measurement": "TGI", "setting": "SN12C renal", "result": "> 100", "unit": "µM"},
      {"measurement": "TGI", "setting": "SNB-19 CNS", "result": "> 100", "unit": "µM"},
      {"measurement": "TGI", "setting": "SNB-78 CNS", "result": "> 100", "unit": "µM"}
    ]},
    {"smiles": "COc1cc2c3c(c4cc(OC)c(OC)cc4c2cc1OC)C(=O)C1CCC(=O)N1C3", "note": "(centres undefined)", "values": [
      {"measurement": "TGI", "setting": "A498 renal", "result": "> 100", "unit": "µM"},
      {"measurement": "TGI", "setting": "MCF7 breast", "result": "> 100", "unit": "µM"},
      {"measurement": "TGI", "setting": "PC-3 prostate", "result": "> 100", "unit": "µM"},
      {"measurement": "TGI", "setting": "SF-539 CNS", "result": 39.8, "unit": "µM"}
    ]},
    {"smiles": "CCOC(=O)c1csc(NC(=O)CN2CCN(C)CC2)n1", "values": [
      {"measurement": "TGI", "setting": "A498 renal", "result": "> 100", "unit": "µM"},
      {"measurement": "TGI", "setting": "A549 NSCLC", "result": "> 100", "unit": "µM"},
      {"measurement": "TGI", "setting": "EKVX NSCLC", "result": "> 100", "unit": "µM"},
      {"measurement": "TGI", "setting": "M14 melanoma", "result": "> 100", "unit": "µM"},
      {"measurement": "TGI", "setting": "MCF7 breast", "result": "> 100", "unit": "µM"},
      {"measurement": "TGI", "setting": "NCI-H226 lung", "result": "> 100", "unit": "µM"},
      {"measurement": "TGI", "setting": "PC-3 prostate", "result": "> 100", "unit": "µM"},
      {"measurement": "TGI", "setting": "SNB-19 CNS", "result": "> 100", "unit": "µM"},
      {"measurement": "TGI", "setting": "SR leukemia", "result": "> 100", "unit": "µM"}
    ]},
    {"smiles": "Cc1cccc(C(C)C)c1NC(=O)CC1Sc2ccccc2NC1=O", "note": "(centres undefined)", "values": [
      {"measurement": "TGI", "setting": "A498 renal", "result": "> 100", "unit": "µM"},
      {"measurement": "TGI", "setting": "A549 NSCLC", "result": "> 100", "unit": "µM"},
      {"measurement": "TGI", "setting": "DLD-1 colon", "result": "> 100", "unit": "µM"},
      {"measurement": "TGI", "setting": "DMS 114 small cell lung", "result": 85, "unit": "µM"},
      {"measurement": "TGI", "setting": "DMS 273 small cell lung", "result": "> 100", "unit": "µM"},
      {"measurement": "TGI", "setting": "EKVX NSCLC", "result": "> 100", "unit": "µM"},
      {"measurement": "TGI", "setting": "HCT-116 colon", "result": "> 100", "unit": "µM"},
      {"measurement": "TGI", "setting": "HOP-18 NSCLC", "result": "> 100", "unit": "µM"},
      {"measurement": "TGI", "setting": "KM20L2 colon", "result": "> 100", "unit": "µM"},
      {"measurement": "TGI", "setting": "LXFL 529 NSCLC", "result": "> 100", "unit": "µM"},
      {"measurement": "TGI", "setting": "M14 melanoma", "result": "> 100", "unit": "µM"},
      {"measurement": "TGI", "setting": "NCI-H226 lung", "result": "> 100", "unit": "µM"},
      {"measurement": "TGI", "setting": "SF-539 CNS", "result": "> 100", "unit": "µM"},
      {"measurement": "TGI", "setting": "SN12C renal", "result": "> 100", "unit": "µM"},
      {"measurement": "TGI", "setting": "SNB-19 CNS", "result": "> 100", "unit": "µM"},
      {"measurement": "TGI", "setting": "SR leukemia", "result": "> 100", "unit": "µM"}
    ]},
    {"smiles": "COc1cc(/C=C/C(=O)O)ccc1C(=O)OCc1ccccc1", "values": [
      {"measurement": "TGI", "setting": "A498 renal", "result": "> 100", "unit": "µM"},
      {"measurement": "TGI", "setting": "A549 NSCLC", "result": "> 100", "unit": "µM"},
      {"measurement": "TGI", "setting": "DLD-1 colon", "result": "> 100", "unit": "µM"},
      {"measurement": "TGI", "setting": "DMS 114 small cell lung", "result": "> 100", "unit": "µM"},
      {"measurement": "TGI", "setting": "DMS 273 small cell lung", "result": "> 100", "unit": "µM"},
      {"measurement": "TGI", "setting": "EKVX NSCLC", "result": "> 100", "unit": "µM"},
      {"measurement": "TGI", "setting": "HCT-116 colon", "result": "> 100", "unit": "µM"},
      {"measurement": "TGI", "setting": "HOP-18 NSCLC", "result": "> 100", "unit": "µM"},
      {"measurement": "TGI", "setting": "KM20L2 colon", "result": "> 100", "unit": "µM"},
      {"measurement": "TGI", "setting": "M19-MEL melanoma", "result": "> 100", "unit": "µM"},
      {"measurement": "TGI", "setting": "MCF7 breast", "result": "> 100", "unit": "µM"},
      {"measurement": "TGI", "setting": "NCI-H226 lung", "result": "> 100", "unit": "µM"},
      {"measurement": "TGI", "setting": "SF-539 CNS", "result": "> 100", "unit": "µM"},
      {"measurement": "TGI", "setting": "SN12C renal", "result": "> 100", "unit": "µM"},
      {"measurement": "TGI", "setting": "SNB-19 CNS", "result": "> 100", "unit": "µM"},
      {"measurement": "TGI", "setting": "SNB-78 CNS", "result": "> 100", "unit": "µM"}
    ]},
    {"smiles": "O=C(CC(=O)c1ccccc1)CC(O)(c1ccccc1)c1ccccc1", "values": [
      {"measurement": "TGI", "setting": "A498 renal", "result": 25.1, "unit": "µM"},
      {"measurement": "TGI", "setting": "DLD-1 colon", "result": 26.6, "unit": "µM"},
      {"measurement": "TGI", "setting": "DMS 114 small cell lung", "result": 5.73, "unit": "µM"},
      {"measurement": "TGI", "setting": "HCT-116 colon", "result": 16.6, "unit": "µM"},
      {"measurement": "TGI", "setting": "KM20L2 colon", "result": 19.5, "unit": "µM"},
      {"measurement": "TGI", "setting": "LXFL 529 NSCLC", "result": 17, "unit": "µM"},
      {"measurement": "TGI", "setting": "M14 melanoma", "result": 14.9, "unit": "µM"},
      {"measurement": "TGI", "setting": "M19-MEL melanoma", "result": 13.9, "unit": "µM"},
      {"measurement": "TGI", "setting": "SN12C renal", "result": 19.3, "unit": "µM"},
      {"measurement": "TGI", "setting": "SNB-19 CNS", "result": 35.3, "unit": "µM"},
      {"measurement": "TGI", "setting": "SNB-78 CNS", "result": 81, "unit": "µM"},
      {"measurement": "TGI", "setting": "SR leukemia", "result": "> 100", "unit": "µM"}
    ]}
  ]
}
